Laboratory results as given in patent publication US20190127354A1, “2,4,6,7-TETRASUBSTITUTED QUINOLINE COMPOUNDS AS INHIBITORS OF DNA […]” (FUNDACIÓN PARA LA INVESTIGACIÓN MÉDICA APLICADA, priority 2015, published 2019).
pIC50: −log10 of the molar value.

How the values were obtained:
[1] = system: DNA methyltransferase (DNMT); settings: selectivity in a methyltransferase enzyme panel including one DNMT, according to the authors; cited from earlier work
[2] = system: CEMO-1; assay: Cell proliferation assay (CellTiter 96 Aqueous One Solution); assay type: cell-based; settings: acute lymphocytic leukemia (ALL) cells, 48 hours of treatment
Description: (§1) Cell proliferation was analyzed after 48 hours of in vitro treatment using the CellTiter 96 Aqueous One Solution Cell Proliferation Assay (Promega, Madison, W). This is a colorimetric method for determining the number of viable cells in proliferation.
(§2) For the assay, suspension cells were cultured by triplicate at a density of 1×10^6 cells/ml in 96-well plates (100.000 cells/well, 100 μl/well), except for HepG2, Hep3B and PLC/PRF/5 cell lines which were cultured at a density of 3000 cells/well, 100 μl/well).
(§3) Adherent cells were obtained from 80-90% confluent flasks and 100 μl of cells were seeded at a density of 5000 cells/well in 96-well plates by triplicate. Before addition of the compounds, adherent cells were allowed to attach to the bottom of the wells for 12 hours. In all cases, only the 60 inner wells were used to avoid any border effects.
(§4) After 48 hours of treatment, plates with suspension cells were centrifuged at 800g for 10 minutes and medium was removed. The plates with adherent cells were flicked to remove medium. Then, cells were incubated with 100 μl/well of medium and 20 μl/well of CellTiter 96 Aqueous One Solution reagent. After 1-3 hours of incubation at 37° C., absorbance was measured at 490 nm in a 96-well plate reader. The background absorbance was measured in wells with only cell line medium and solution reagent. Data was calculated as a percentage of total absorbance of treated cell/absorbance of non treated cells.

[3] = system: Hep3B; assay: as above; assay type: cell-based; settings: Homo sapiens, hepatocellular carcinoma cells, 48 hours of treatment
Description: as §1, §2, §3, §4

[4] = system: HepG2; assay: as above; assay type: cell-based; settings: Homo sapiens, hepatocellular carcinoma cells, 48 hours of treatment
Description: as §1, §2, §3, §4

[5] = system: PLC/PRF/5; assay: as above; assay type: cell-based; settings: Homo sapiens, hepatocellular carcinoma cells, 48 hours of treatment
Description: as §1, §2, §3, §4

[6] = target: T1, human DNMT1 (Homo sapiens, UniProt P26358); assay: DNMT1 enzyme activity assay (TR-FRET, EPIgeneous methyltransferase assay); assay type: biochemical; settings: human DNMT1, 15 minutes at 37° C.
T1 construct: purchased Reaction Biology Corp. DMT-21-124
Description: DNMT1 Enzyme Activity Assay
The biochemical assay to measure DNMT1 enzyme activity relies on time-resolved fluorescence energy transfer (TR-FRET) between lumi4-Tb (donor) and d2 (acceptor) using the EPIgeneous methyltransferase assay (CisBio Cat#62SAHPEB). […] TR-FRET signal is inversely proportional to the concentration of SAH, product of DNMT1 enzyme activity, in the sample. The human DNMT1 was obtained from Reaction Biology Corp. (Cat# DMT-21-124).
Enzyme activity assay was carried out in a white 384-well plate in a final volume of 20 μl, as follow: • 4 μl of vehicle or studied compound 2.5× concentrated prepared in assay buffer (50 mM Tris-HCl, 1 mM EDTA, 1 mM DTT, 0.1% Triton X-100, 5% glycerol pH 7.5). Final percentage of DMSO was 0.5%. • 2 μl of 1 nM DNMT1 enzyme diluted in assay buffer.
(§5) For each well, fluorescence was measured at 620 nm and 665 nm. A ratio (665 nm/620 nm) was then calculated in order to minimize medium interferences. Positive control was obtained in the presence of the vehicle of the compounds. Calculated IC50 values were determined using GraphPrism using 4-parameters inhibition curve.

[7] = target: T2, human G9a enzyme (Homo sapiens, UniProt Q96KQ7); assay: G9a enzyme activity assay (TR-FRET); assay type: biochemical; settings: 1 hour at room temperature
T2 construct: purchased BPS Biosciences 51001; host or cells: baculovirus infected Sf9 cells
T2 sequence (Q96KQ7 1-1210): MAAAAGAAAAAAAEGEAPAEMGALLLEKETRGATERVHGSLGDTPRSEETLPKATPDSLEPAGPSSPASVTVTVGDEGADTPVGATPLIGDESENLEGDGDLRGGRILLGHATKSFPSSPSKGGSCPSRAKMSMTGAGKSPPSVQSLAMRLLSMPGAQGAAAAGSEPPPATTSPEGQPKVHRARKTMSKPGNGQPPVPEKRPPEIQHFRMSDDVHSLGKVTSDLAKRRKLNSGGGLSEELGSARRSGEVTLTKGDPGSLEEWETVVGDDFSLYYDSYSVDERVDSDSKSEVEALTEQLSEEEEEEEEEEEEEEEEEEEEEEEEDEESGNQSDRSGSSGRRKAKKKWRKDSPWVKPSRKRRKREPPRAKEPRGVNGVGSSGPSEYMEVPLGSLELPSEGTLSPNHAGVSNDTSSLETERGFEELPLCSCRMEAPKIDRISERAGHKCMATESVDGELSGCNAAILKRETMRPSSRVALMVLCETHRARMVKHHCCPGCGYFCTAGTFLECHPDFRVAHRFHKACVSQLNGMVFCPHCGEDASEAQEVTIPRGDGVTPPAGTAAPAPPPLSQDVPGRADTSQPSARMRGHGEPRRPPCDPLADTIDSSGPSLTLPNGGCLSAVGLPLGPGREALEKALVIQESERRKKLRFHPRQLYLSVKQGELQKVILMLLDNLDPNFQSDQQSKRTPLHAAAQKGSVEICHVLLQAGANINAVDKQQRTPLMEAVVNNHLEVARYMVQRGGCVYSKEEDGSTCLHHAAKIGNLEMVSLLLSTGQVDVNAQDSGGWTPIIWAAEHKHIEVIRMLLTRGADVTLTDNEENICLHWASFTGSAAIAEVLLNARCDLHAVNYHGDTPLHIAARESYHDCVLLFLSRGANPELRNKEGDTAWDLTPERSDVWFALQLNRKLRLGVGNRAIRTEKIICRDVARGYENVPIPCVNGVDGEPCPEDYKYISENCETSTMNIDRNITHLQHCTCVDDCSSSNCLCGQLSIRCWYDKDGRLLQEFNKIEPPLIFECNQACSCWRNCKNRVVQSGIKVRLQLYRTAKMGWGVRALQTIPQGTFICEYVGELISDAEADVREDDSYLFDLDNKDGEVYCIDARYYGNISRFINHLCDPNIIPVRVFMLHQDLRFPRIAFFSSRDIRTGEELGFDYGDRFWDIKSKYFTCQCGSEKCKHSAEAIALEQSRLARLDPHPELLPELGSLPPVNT
Description: G9a Enzyme Activity Assay
The biochemical assay to measure G9a enzyme activity relies on time-resolved fluorescence energy transfer (TR-FRET) between europium cryptate (donor) and XL665 (acceptor). […] The human G9a enzyme expressed in a baculovirus infected Sf9 cell expression system was obtained from BPS Biosciences (Cat. #51001). Enzyme activity assay was carried out in a white 384-well plate in a final volume of 20 μl, as follow: • 4 μl of vehicle or studied compound 2.5× concentrated prepared in assay buffer (50 mM Tris-HCl, 10 mM NaCl, 4 mM DTT, 0.01% Tween-20 pH9). Final percentage of DMSO was 0.5%. • 2 μl of 1 nM G9a enzyme diluted in assay buffer. […] Final concentration 150 nM. • Then, add 5 μl of streptavidin XL665 beads. Final concentration of 16 μM. • Read the plate after 1 hour of incubation at room temperature.
as §5, with “compounds. Negative control was obtained in the absence of G9a enzyme activity.” for “compounds.”

T1 sequence (P26358 whole entry): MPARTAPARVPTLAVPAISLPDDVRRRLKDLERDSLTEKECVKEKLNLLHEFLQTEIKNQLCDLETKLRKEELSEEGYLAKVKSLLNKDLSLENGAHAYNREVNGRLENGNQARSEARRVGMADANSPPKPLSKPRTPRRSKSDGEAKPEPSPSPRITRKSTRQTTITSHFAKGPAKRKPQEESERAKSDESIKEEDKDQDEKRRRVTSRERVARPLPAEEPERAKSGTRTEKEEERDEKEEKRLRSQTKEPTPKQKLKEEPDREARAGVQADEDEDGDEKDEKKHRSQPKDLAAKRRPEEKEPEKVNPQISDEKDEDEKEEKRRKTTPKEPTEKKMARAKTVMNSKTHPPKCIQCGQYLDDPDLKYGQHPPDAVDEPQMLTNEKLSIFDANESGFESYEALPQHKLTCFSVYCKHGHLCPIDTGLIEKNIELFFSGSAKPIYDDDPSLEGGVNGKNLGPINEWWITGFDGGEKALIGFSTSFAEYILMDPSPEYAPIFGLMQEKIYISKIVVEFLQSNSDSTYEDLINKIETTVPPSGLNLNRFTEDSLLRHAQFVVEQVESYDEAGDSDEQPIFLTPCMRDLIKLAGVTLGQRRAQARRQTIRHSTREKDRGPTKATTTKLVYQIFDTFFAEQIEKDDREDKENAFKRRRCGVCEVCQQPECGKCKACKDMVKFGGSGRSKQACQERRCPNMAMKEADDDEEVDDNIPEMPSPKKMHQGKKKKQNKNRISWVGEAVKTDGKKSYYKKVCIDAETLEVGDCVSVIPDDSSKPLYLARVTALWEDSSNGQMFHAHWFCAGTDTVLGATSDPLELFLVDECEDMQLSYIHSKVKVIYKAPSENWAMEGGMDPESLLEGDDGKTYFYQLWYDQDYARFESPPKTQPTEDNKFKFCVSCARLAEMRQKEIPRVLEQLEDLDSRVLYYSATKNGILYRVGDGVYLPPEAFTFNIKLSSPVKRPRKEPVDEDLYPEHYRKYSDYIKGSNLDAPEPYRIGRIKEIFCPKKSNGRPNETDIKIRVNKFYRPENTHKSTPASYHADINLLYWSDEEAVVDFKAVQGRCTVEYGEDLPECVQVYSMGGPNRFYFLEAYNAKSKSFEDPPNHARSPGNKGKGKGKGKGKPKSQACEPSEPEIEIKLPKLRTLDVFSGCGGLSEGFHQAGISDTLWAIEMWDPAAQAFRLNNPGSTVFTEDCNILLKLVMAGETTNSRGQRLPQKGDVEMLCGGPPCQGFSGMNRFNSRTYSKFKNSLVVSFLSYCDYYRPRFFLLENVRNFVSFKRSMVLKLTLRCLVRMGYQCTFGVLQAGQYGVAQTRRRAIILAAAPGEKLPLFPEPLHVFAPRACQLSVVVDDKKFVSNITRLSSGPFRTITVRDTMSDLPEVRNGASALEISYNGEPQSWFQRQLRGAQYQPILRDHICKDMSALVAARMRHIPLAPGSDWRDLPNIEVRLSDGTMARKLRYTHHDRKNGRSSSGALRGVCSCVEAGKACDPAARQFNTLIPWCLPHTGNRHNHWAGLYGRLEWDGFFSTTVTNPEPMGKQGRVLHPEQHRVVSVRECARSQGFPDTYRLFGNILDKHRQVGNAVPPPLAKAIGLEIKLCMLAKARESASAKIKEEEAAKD

Compound	activity against the DNA methyltransferase [1]	GI50 [2]	GI50 [3]	GI50 [4]	GI50 [5]	pIC50 [6]	pIC50 [7]
COc1cc2nc(N3CCN(C)CC3)cc(NC3CCN(Cc4ccccc4)CC3)c2cc1OC [Compound 42]	inactive						
COc1cc2nc(N3CCCN(C)CC3)cc(NC3CCN(Cc4ccccc4)CC3)c2cc1OC [Compound 41]	inactive						
COc1cc2c(OC3CCN(C)CC3)cc(-c3ccc(C)o3)nc2cc1OCCCN1CCCC1 [Compound 3-01, 6-methoxy-2-(5-methyl-2-furyl)-4-[(1-methyl-4-piperidyl)oxy]-7-(3-pyrrolidin-1-ylpropoxy)quinoline]		1000 to 10000 nM	1000 to 10000 nM	1000 to 10000 nM	1000 to 10000 nM		
COc1cc2c(N(C)C3CCN(C)CC3)cc(-c3ccc(C)o3)nc2cc1OCCCN1CCCC1 [Compound 1-02]		≥ 10000 nM	1000 to 10000 nM	1000 to 10000 nM			
COc1cc2c(N(C)CC3CCN(C)CC3)cc(-c3ccc(C)o3)nc2cc1OCCCN1CCCC1 [Compound 1-03]		1000 to 10000 nM	100 to 1000 nM	100 to 1000 nM		6.30 to 7.00	5.00 to 6.00
CCc1ccc(-c2cc(N(C)CC3CCN(C)CC3)c3cc(OC)c(OCCCN4CCCC4)cc3n2)o1 [Compound 1-04]		100 to 1000 nM	100 to 1000 nM	100 to 1000 nM		6.30 to 7.00	6.00 to 6.30
